Measurements taken from patent US20230399317A1, “COMPOUNDS AND METHODS FOR THE TREATMENT OF OCULAR DISORDERS” (Azura Ophthalmics Ltd., priority 2020, published 2023).

Assay: Rabbit Cornea Homogenate stability (esterase) assay, Method 2
Format: in vitro ADME
Conditions: for Esterase % Lifitegrast formation at 45 min: 37° C., Method 2 (DPBS pH 7.4); for API Formation rate (%/min): Method 2
Description: Determining Rabbit Cornea Homogenate stability of the test compounds was performed using HPLC-MS or UPLC-MS. The assay was performed at two concentrations of Rabbit Cornea Homogenate (0.15 mg/mL and 0.45 mg/mL total protein) so that any hydrolysis observed can be assigned as esterase dependent or not.
Three to five rabbit corneas (e.g. New Zealand Whites (NZW) or Dutch Belted (DB)) of approx. 50 mg each were sliced and scraped with a scalpel and tweezers until reduced to small (1-3 mm), thin pieces. These were transferred into a glass vial containing approximately 2 mL of cold DPBS pH 7.4 buffer.
Sample was cooled intermittently on ice and shear homogenized for 3 minutes, then centrifuged for 3 min at 13,000 g. The supernatant was pipetted off into a vial, and total protein concentration determined at 280 nm. Sample was stored at −78° C.
10 mM Compound DMSO stocks were diluted to 10 μM in a glass vial: 10 μL of 10 mM Compound stock was added to 9,990 μL DPBS, pH 7.4 buffer. Esterase homogenate was diluted to 300 ng/μL and 900 ng/μL in DPBS. […]
A heater shaker was set to 37° C. Into a suitable 96 well plate (Run Plate), 80 μL of 300 or 900 ng/μL esterase homogenate was pipetted into two rows as compounds were analyzed in duplicate (0 min, 2 min, 5 min, 10 min, 20 min and 45 min). The plate was sealed and then warmed at 37° C. for 5 min.
Two 96 shallow-well plates were placed on ice (Kill Plates). To these, 180 μL of 60:40 MeCN-H2O+0.1% acetic acid were added to required rows. The plates were sealed to minimise evaporation.
To both rows of the Run Plate, 80 μL of 10 μM compound solution was added. At the appropriate time point, 20 μL of the assay mixture was added to the matching kill plate well containing 180 μL of 60:40 cold MeCN-H2O+0.1% acetic acid. For lipoic acid analysis, samples were analysed as soon as practicable by LCMS (Waters Xevo TQ-S). For parent conjugate and parent analysis the samples were diluted further 1 in 10: 20 μL supernatant was added to 180 μL of 50:50 MeCN—H2O.
Parent conjugate, parent and keratolytic concentrations were determined against appropriate standard response curves and the half-life (T½) of the parent conjugate was calculated using the peak area or the measured concentration of the parent conjugate at each time point in the linear region of the log-linear plot.

[1] = Cornea Homogenate Conc 0.15 mg/mL
[2] = Cornea Homogenate Conc 0.45 mg/mL

Row | Compound | Esterase % Lifitegrast formation at 45 min [1] | API Formation rate (%/min) [1] | Esterase % Lifitegrast formation at 45 min [2] | API Formation rate (%/min) [2]
1 | CC(=O)N[C@@H](CSSC[C@H](NC(C)=O)C(=O)OC(C)OC(=O)[C@H](Cc1cccc(S(C)(=O)=O)c1)NC(=O)c1c(Cl)cc2c(c1Cl)CCN(C(=O)c1ccc3ccoc3c1)C2)C(=O)OC(C)OC(=O)[C@H](Cc1cccc(S(C)(=O)=O)c1)NC(=O)c1c(Cl)cc2c(c1Cl)CCN(C(=O)c1ccc3ccoc3c1)C2 (some centres unmarked) [Compound 49] | A (percent active pharmaceutical ingredient (API) formation <25%) | a (API formation rate <0.5%/min) | A (percent active pharmaceutical ingredient (API) formation <25%) | a (API formation rate <0.5%/min)
2 | CC(=O)N[C@@H](CSSCC[C@@H](CCCCC(=O)OC(C)OC(=O)[C@H](Cc1cccc(S(C)(=O)=O)c1)NC(=O)c1c(Cl)cc2c(c1Cl)CCN(C(=O)c1ccc3ccoc3c1)C2)SSC[C@H](NC(C)=O)C(=O)O)C(=O)O (some centres unmarked) [Compound 44] | A (percent active pharmaceutical ingredient (API) formation <25%) | a (API formation rate <0.5%/min) | A (percent active pharmaceutical ingredient (API) formation <25%) | a (API formation rate <0.5%/min)
3 | CC(OC(=O)CCC(=O)OC(C)(C)C)OC(=O)[C@H](Cc1cccc(S(C)(=O)=O)c1)NC(=O)c1c(Cl)cc2c(c1Cl)CCN(C(=O)c1ccc3ccoc3c1)C2 (some centres unmarked) [Compound 48] | B (percent API formation 25% to 50%) | b (API formation rate 0.5-1.0%/min) | C (percent API formation 51% to 75%) | c (API formation rate 1.0-1.5%/min)
4 | CCOC(=O)CCC(=O)OC(C)OC(=O)[C@H](Cc1cccc(S(C)(=O)=O)c1)NC(=O)c1c(Cl)cc2c(c1Cl)CCN(C(=O)c1ccc3ccoc3c1)C2 (some centres unmarked) [Compound 37] | C (percent API formation 51% to 75%) | c (API formation rate 1.0-1.5%/min) | D (percent API formation >75%) | c (API formation rate 1.0-1.5%/min)
5 | CC(=O)N[C@@H](CS)C(=O)OCCOCCOCCOCCOCCOCCOCCOCCOC(=O)OC(C)OC(=O)[C@H](Cc1cccc(S(C)(=O)=O)c1)NC(=O)c1c(Cl)cc2c(c1Cl)CCN(C(=O)c1ccc3ccoc3c1)C2 (some centres unmarked) [Compound 30] | A (percent active pharmaceutical ingredient (API) formation <25%) | a (API formation rate <0.5%/min) | A (percent active pharmaceutical ingredient (API) formation <25%) | a (API formation rate <0.5%/min)
6 | CC(OC(=O)OCCO)OC(=O)[C@H](Cc1cccc(S(C)(=O)=O)c1)NC(=O)c1c(Cl)cc2c(c1Cl)CCN(C(=O)c1ccc3ccoc3c1)C2 (some centres unmarked) [Compound 42] | C (percent API formation 51% to 75%) | d (API formation rate >1.5%/min) | C (percent API formation 51% to 75%) | d (API formation rate >1.5%/min)
7 | CC(OC(=O)OCCCO)OC(=O)[C@H](Cc1cccc(S(C)(=O)=O)c1)NC(=O)c1c(Cl)cc2c(c1Cl)CCN(C(=O)c1ccc3ccoc3c1)C2 (some centres unmarked) [Compound 43] | B (percent API formation 25% to 50%) | b (API formation rate 0.5-1.0%/min) | C (percent API formation 51% to 75%) | c (API formation rate 1.0-1.5%/min)
8 | CC(OC(=O)OCCCOC(=O)CCCC[C@@H]1CCSS1)OC(=O)[C@H](Cc1cccc(S(C)(=O)=O)c1)NC(=O)c1c(Cl)cc2c(c1Cl)CCN(C(=O)c1ccc3ccoc3c1)C2 (some centres unmarked) [Compound 47] | A (percent active pharmaceutical ingredient (API) formation <25%) | a (API formation rate <0.5%/min) | A (percent active pharmaceutical ingredient (API) formation <25%) | a (API formation rate <0.5%/min)
9 | CS(=O)(=O)c1cccc(C[C@H](NC(=O)c2c(Cl)cc3c(c2Cl)CCN(C(=O)c2ccc4ccoc4c2)C3)C(=O)OCCCOC(=O)CCCC[C@@H]2CCSS2)c1 [Compound 35] | A (percent active pharmaceutical ingredient (API) formation <25%) | a (API formation rate <0.5%/min) | A (percent active pharmaceutical ingredient (API) formation <25%) | a (API formation rate <0.5%/min)
10 | CC(=O)N[C@@H](CS)C(=O)OCCOCCOCCOCCOC(=O)OC(C)OC(=O)[C@H](Cc1cccc(S(C)(=O)=O)c1)NC(=O)c1c(Cl)cc2c(c1Cl)CCN(C(=O)c1ccc3ccoc3c1)C2 (some centres unmarked) [Compound 29] | A (percent active pharmaceutical ingredient (API) formation <25%) | a (API formation rate <0.5%/min) | A (percent active pharmaceutical ingredient (API) formation <25%) | a (API formation rate <0.5%/min)
11 | CC(OC(=O)OCCOC(=O)CCCC[C@H]1CCSS1)OC(=O)[C@H](Cc1cccc(S(C)(=O)=O)c1)NC(=O)c1c(Cl)cc2c(c1Cl)CCN(C(=O)c1ccc3ccoc3c1)C2 (some centres unmarked) [Compound 46] | A (percent active pharmaceutical ingredient (API) formation <25%) | a (API formation rate <0.5%/min) | A (percent active pharmaceutical ingredient (API) formation <25%) | a (API formation rate <0.5%/min)
12 | CS(=O)(=O)c1cccc(C[C@H](NC(=O)c2c(Cl)cc3c(c2Cl)CCN(C(=O)c2ccc4ccoc4c2)C3)C(=O)OCOC(=O)CCCC[C@@H]2CCSS2)c1 [Compound 36] | A (percent active pharmaceutical ingredient (API) formation <25%) | a (API formation rate <0.5%/min) | B (percent API formation 25% to 50%) | b (API formation rate 0.5-1.0%/min)
13 | CS(=O)(=O)c1cccc(C[C@H](NC(=O)c2c(Cl)cc3c(c2Cl)CCN(C(=O)c2ccc4ccoc4c2)C3)C(=O)OCCOC(=O)CCCC[C@@H]2CCSS2)c1 [Compound 34] | A (percent active pharmaceutical ingredient (API) formation <25%) | a (API formation rate <0.5%/min) | A (percent active pharmaceutical ingredient (API) formation <25%) | a (API formation rate <0.5%/min)
14 | CS(=O)(=O)c1cccc(C[C@H](NC(=O)c2c(Cl)cc3c(c2Cl)CCN(C(=O)c2ccc4ccoc4c2)C3)C(=O)OCCO)c1 [Compound 32] | A (percent active pharmaceutical ingredient (API) formation <25%) | a (API formation rate <0.5%/min) | B (percent API formation 25% to 50%) | b (API formation rate 0.5-1.0%/min)
15 | CS(=O)(=O)c1cccc(C[C@H](NC(=O)c2c(Cl)cc3c(c2Cl)CCN(C(=O)c2ccc4ccoc4c2)C3)C(=O)OCCCO)c1 [Compound 33] | B (percent API formation 25% to 50%) | b (API formation rate 0.5-1.0%/min) | B (percent API formation 25% to 50%) | c (API formation rate 1.0-1.5%/min)
16 | CC(=O)N1C(C(=O)OC(C)OC(=O)[C@H](Cc2cccc(S(C)(=O)=O)c2)NC(=O)c2c(Cl)cc3c(c2Cl)CCN(C(=O)c2ccc4ccoc4c2)C3)CSC1(C)C (some centres unmarked) [Compound 26] | A (percent active pharmaceutical ingredient (API) formation <25%) | a (API formation rate <0.5%/min) | A (percent active pharmaceutical ingredient (API) formation <25%) | a (API formation rate <0.5%/min)
17 | CC(=O)NC(CSSCC(NC(C)=O)C(=O)OC(C)OC(=O)[C@H](Cc1cccc(S(C)(=O)=O)c1)NC(=O)c1c(Cl)cc2c(c1Cl)CCN(C(=O)c1ccc3ccoc3c1)C2)C(=O)O (some centres unmarked) [Compound 25] | A (percent active pharmaceutical ingredient (API) formation <25%) | a (API formation rate <0.5%/min) | A (percent active pharmaceutical ingredient (API) formation <25%) | a (API formation rate <0.5%/min)
